Measured values as given in US6069166A, “Fused heterocyclic benzenecarboxamide derivatives and PGD2 antagonists comprising them” (Shionogi & Co., Ltd., priority 1996, dated 2000).
pIC50: −log10 of the molar value.

Tests used:
[1] = tested on: nasal blockage (intranasal pressure); assay: Nasal blockage model in sensitized guinea pigs (intranasal pressure after OVA challenge); type: in vivo, Hartley male guinea pig; settings: oral, 60 min before antigen exposure; AUC of intranasal pressure 0-30 min vs vehicle; dose not given
Method: Experiment 3 Experiment Using Nasal Blockage Model
The method used for measuring the intranasal pressure for evaluating the anti-nasal blockage using guinea pigs is described below.
A 1% ovalbumin (OVA) solution was treated with an ultrasonic nebulizer to obtain an aerosol. Hartley male guinea pig was sensitized by inhaling twice the aerosol for 10 min at one-week interval. Seven-day after the sensitization, the guinea pig was exposed to an antigen to initiate the reaction. Briefly, the trachea was incised under the anesthesia with pentobarbital (30 mg/kg. i.p.) and cannulas were inserted into the trachea at the pulmonary and nasal cavity sides. The canal inserted at the pulmonary side was connected with an artificial respirator that provides 4 ml air 60 times/min. After arresting the spontaneous respiration of the guinea pig with Gallamin (2 mg/kg, i.v.), air was supplied to the snout side with an artificial respirator at the frequency of 70 times/min, and the flow rate of 4 ml air/time, and the atmospheric pressure required for the aeration was measured by the use of a transducer fitted at the branch. The measurement was used as a parameter of the nasal cavity resistance. The exposure of an antigen was carried out by generating aerosol of 3% OVA solution for 3 min between the respirator and the nasal cavity cannula. […]

PGD2 Receptor [2] = target: T1, PGD2 Receptor (Homo sapiens, UniProt Q13258); assay: Antagonistic activity against PGD2 receptor using human platelet (PGD2-induced cAMP increase); type: cell-based; settings: human platelets 5×10^8/ml, 0.1 μM PGD2, IBMX 0.5 mM, cAMP by radioimmunoassay; read-out: IC50 (inhibition of cAMP increased by PGD2)
T1 construct: A suspension adjusted to contain platelet at a final concentration of; endogenous in cells; host or cells: washed human platelets from peripheral blood of a healthy volunteer
T1 sequence (Q13258 1-359): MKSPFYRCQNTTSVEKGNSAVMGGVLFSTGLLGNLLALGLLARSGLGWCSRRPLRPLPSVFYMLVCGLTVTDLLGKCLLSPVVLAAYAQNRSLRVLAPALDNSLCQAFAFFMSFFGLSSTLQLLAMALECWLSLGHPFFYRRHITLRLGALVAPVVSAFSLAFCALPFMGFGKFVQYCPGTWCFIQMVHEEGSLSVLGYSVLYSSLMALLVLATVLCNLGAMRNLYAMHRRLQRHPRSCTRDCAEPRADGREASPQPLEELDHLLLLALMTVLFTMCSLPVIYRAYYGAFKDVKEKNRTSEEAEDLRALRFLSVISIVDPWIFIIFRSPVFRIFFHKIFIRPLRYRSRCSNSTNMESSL
Method: Experiment 2 Evaluation of Antagonistic Activity Against PGD2 Receptor Using Human Platelet Peripheral blood was obtained from a healthy volunteer using a syringe in which 1/9 volume of citric acid/dextrose solution has been previously added. The syringe was subjected to centrifugation at 180 g for 10 min to obtain the supernatant (PRP:platelet rich plasma). The resultant PRP was washed 3 times with a washing buffer and the number of platelet was counted with a micro cell counter. A suspension adjusted to contain platelet at a final concentration of 5×10^8 /ml was warmed at 37° C., and then subjected to the pre-treatment with 3-isobutyl-1-methylxanthine (0.5 mM) for 5 min. To the suspension was added a test compound diluted at various concentration. Ten-minute later, the reaction was induced by the addition of 0.1 μM PGD2 and, 2-minute later, stopped by the addition of hydrochloric acid. The platelet was destroyed with an ultrasonic homogenizer. After centrifugation, the cAMP in the supernatant was determined by radioimmunoassay. PGD2 receptor antagonism of a drug was evaluated as follows. The inhibition rate regarding cAMP increased by the addition of PGD2 was determined at individual concentration, and then the concentration of the drug required for 50% inhibition (IC50) was calculated.

PGD2 Receptor [3] = target: T1, PGD2 Receptor; assay: Binding to PGD2 receptor (human platelet membrane fraction, [3H]PGD2); settings: human platelet membrane fraction 0.1 mg, 5 nM [3H]PGD2, 4° C., 90 min, pH 7.4; read-out: IC50 (inhibition of [3H]PGD2 binding)
Method: Experiment 1 Binding to PGD2 Receptor
(1) Preparation of Human Platelet Membrane Fraction
Blood sample was obtained using a plastic syringe containing 3.8% sodium citrate from the vein of healthy volunteers (adult male and female), put into a plastic test tube and mixed gently by rotation. The sample was then centrifuged at 1800 rpm, 10 min at room temperature, and the supernatant containing PRP (platelet-rich plasma) was collected. The PRP was re-centrifuged at […], 22 min at room temperature to obtain platelets. The platelets were homogenized using a homogenizer (Ultra-Turrax) followed by centrifugation 3 times at 20,000 rpm, 10 min at 4° C. to obtain a platelet membrane fraction. After protein determination, the membrane fraction was adjusted to 2 mg/ml and preserved in a refrigerator at -80° C. until use.
(2) Binding to PGD2 Receptor
To a binding-reaction solution (50 mM Tris/HCl, pH 7.4, 5 mM MgCl2) (0.2 ml) were added the human platelet membrane fraction (0.1 mg) and 5 nM [^3 H]PGD2 (115Ci/mmol), and reacted at 4° C. for 90 min. After the reaction completed, the reaction mixture was filtered through a glass fiber filter paper, washed several times with cooled saline, and measured the radioactivity retained on the filter paper. The specific binding was calculated by subtracting the non-specific binding (the binding in the presence of 10 μM PGD2) from the total binding. The inhibitory activity of each compound was expressed as the concentration required for 50% inhibition (IC50), which was determined by depicting a substitution curve by plotting the binding ratio (%) in the presence of each compound, where the binding ratio in the absence of a test compound is 100%.

Row | pIC50 (PGD2 Receptor [2]) | pIC50 (PGD2 Receptor [3]) | Compound | Inhibitory Rate (%) [1]
1 | 7.38 | 7.59 | CC1(C)[C@H]2C[C@H](C/C=C\CCCC(=O)O)[C@@H](NC(=O)c3cccc4ccsc34)[C@@H]1C2 [IA-a-1] | 80%
2 | 6.82 | 7.96 | Cc1csc2c(C(=O)N[C@@H]3[C@@H](C/C=C\CCCC(=O)O)C[C@H]4C[C@@H]3C4(C)C)cccc12 [IA-a-4] | –
3 | 7.96 | 8.92 | CC1(C)[C@H]2C[C@H](C/C=C\CCCC(=O)O)[C@@H](NC(=O)c3cccc4c(Br)csc34)[C@@H]1C2 [IA-a-7] | –
4 | 8.36 | 9.39 | COc1csc2c(C(=O)N[C@@H]3[C@@H](C/C=C\CCCC(=O)O)C[C@H]4C[C@@H]3C4(C)C)cccc12 [IA-a-9] | –
